Reference: ChEMBL document CHEMBL5030550, “A late-stage diversification via Heck-Matsuda arylation: Straightforward synthesis and cytotoxic/antiproliferative profiling of novel aryl-labdane-type derivatives” (Bioorg Med Chem Lett, 2021)

Assays:
HUVEC [1] = test: Cytotoxicity against HUVEC assessed as reduction in cell viability measured after 24 hrs by MTT assay; format: cell-based; details: Homo sapiens
MCF7 [2] = test: Cytotoxicity against human MCF7 cells assessed as reduction in cell viability measured after 72 hrs by MTT assay; format: functional, cell-based; details: MCF7, 72 h
MCF7 [3] = test: Cytotoxicity against human MCF7 cells assessed as reduction in cell viability measured after 24 hrs by MTT assay; format: functional, cell-based; details: MCF7, 24 h
HUVEC [4] = test: Cytotoxicity against HUVEC assessed as reduction in cell viability measured after 72 hrs by MTT assay; format: cell-based; details: Homo sapiens
THP-1 [5] = test: Cytotoxicity against human THP-1 cells assessed as reduction in cell viability measured after 72 hrs by MTT assay; format: functional, cell-based; details: THP-1, 72 h
K562 [6] = test: Cytotoxicity against human K562 cells assessed as reduction in cell viability measured after 72 hrs by MTT assay; format: functional, cell-based; details: K562, 72 h
THP-1 [7] = test: Cytotoxicity against human THP-1 cells assessed as reduction in cell viability measured after 24 hrs by MTT assay; format: functional, cell-based; details: THP-1, 24 h
K562 [8] = test: Cytotoxicity against human K562 cells assessed as reduction in cell viability measured after 24 hrs by MTT assay; format: functional, cell-based; details: K562, 24 h
K562 [9] = test: Cell cycle arrest in human K562 cells assessed as accumulation at G2/M phase at 100 uM measured after 24 hrs by propidium iodide staining based flow cytometry analysis (reference value: 25.6+/- 0.7%); format: functional
K562 [10] = test: Cell cycle arrest in human K562 cells assessed as accumulation at G1 phase at 100 uM measured after 24 hrs by propidium iodide staining based flow cytometry analysis (reference value: 43.5+/- 0.3%); format: functional
K562 [11] = test: Cell cycle arrest in human K562 cells assessed as accumulation at S phase at 100 uM measured after 24 hrs by propidium iodide staining based flow cytometry analysis (reference value: 22.8+/- 0.5%); format: functional
K562 [12] = test: Cell cycle arrest in human K562 cells assessed as accumulation at sub G1 phase at 100 uM measured after 24 hrs by propidium iodide staining based flow cytometry analysis (reference value: 6.5+/- 0.7%); format: functional
K562 [13] = test: Cell cycle arrest in human K562 cells assessed as accumulation at S phase at 50 uM measured after 24 hrs by propidium iodide staining based flow cytometry analysis (reference value: 22.8+/- 0.5%); format: functional
K562 [14] = test: Cell cycle arrest in human K562 cells assessed as accumulation at G2/M phase at 50 uM measured after 24 hrs by propidium iodide staining based flow cytometry analysis (reference value: 25.6+/- 0.7%); format: functional
K562 [15] = test: Induction of apoptosis in human K562 cells at 25 uM after 24 hrs by PI staining based flow cytometric analysis (reference value: 0.1+/- 0.05%); format: functional
K562 [16] = test: Cell cycle arrest in human K562 cells assessed as accumulation at S phase at 25 uM measured after 24 hrs by propidium iodide staining based flow cytometry analysis (reference value: 22.8+/- 0.5%); format: functional
K562 [17] = test: Induction of autophagy in human K562 cells at 25 uM after 24 hrs (reference value: 3.9+/- 1.1%); format: functional
K562 [18] = test: Induction of apoptosis in human K562 cells at 100 uM after 24 hrs by PI staining based flow cytometric analysis (reference value: 0.1+/- 0.05%); format: functional
K562 [19] = test: Induction of ROS production in human K562 cells at 100 uM incubated for 24 hrs relative to control; format: functional
K562 [20] = test: Cell cycle arrest in human K562 cells assessed as accumulation at G1 phase at 25 uM measured after 24 hrs by propidium iodide staining based flow cytometry analysis (reference value: 43.5+/- 0.3%); format: functional
K562 [21] = test: Cell cycle arrest in human K562 cells assessed as accumulation at G2/M phase at 25 uM measured after 24 hrs by propidium iodide staining based flow cytometry analysis (reference value: 25.6+/- 0.7%); format: functional
K562 [22] = test: Cell cycle arrest in human K562 cells assessed as accumulation at sub G1 phase at 25 uM measured after 24 hrs by propidium iodide staining based flow cytometry analysis (reference value: 6.5+/- 0.7%); format: functional
K562 [23] = test: Induction of apoptosis in human K562 cells at 50 uM after 24 hrs by PI staining based flow cytometric analysis (reference value: 0.1+/- 0.05%); format: functional
K562 [24] = test: Cell cycle arrest in human K562 cells assessed as accumulation at sub G1 phase at 50 uM measured after 24 hrs by propidium iodide staining based flow cytometry analysis (reference value: 6.5+/- 0.7%); format: functional
K562 [25] = test: Induction of autophagy in human K562 cells at 100 uM after 24 hrs (reference value: 3.9+/- 1.1%); format: functional
K562 [26] = test: Induction of autophagy in human K562 cells at 50 uM after 24 hrs (reference value: 3.9+/- 1.1%); format: functional
K562 [27] = test: Cell cycle arrest in human K562 cells assessed as accumulation at G1 phase at 50 uM measured after 24 hrs by propidium iodide staining based flow cytometry analysis (reference value: 43.5+/- 0.3%); format: functional

SMILES	IC50 (HUVEC [1])	IC50 (MCF7 [2])	IC50 (MCF7 [3])	IC50 (HUVEC [4])	IC50 (THP-1 [5])	IC50 (K562 [6])	IC50 (THP-1 [7])	IC50 (K562 [8])	also measured
O=c1[nH]cc(F)c(=O)[nH]1 [FLUOROURACIL]	> 200 µM	166 µM	> 200 µM	96 µM	–	–	–	–	–
CC(CC[C@H]1/C(=C/c2ccc(Cl)cc2)CC[C@H]2C(C)(C)CCC[C@]12C)CC(=O)O (some centres not stated)	> 200 µM	–	–	> 200 µM	> 200 µM	> 200 µM	> 200 µM	> 200 µM	–
CC(CC[C@H]1/C(=C/c2ccc(Br)cc2)CC[C@H]2C(C)(C)CCC[C@]12C)CC(=O)O (some centres not stated)	> 200 µM	–	–	> 200 µM	> 200 µM	> 200 µM	> 200 µM	> 200 µM	–
COc1cc([C@@H]2c3cc4c(cc3[C@@H](O[C@@H]3O[C@@H]5CO[C@@H](C)O[C@H]5[C@H](O)[C@H]3O)[C@H]3COC(=O)[C@H]23)OCO4)cc(OC)c1O [ETOPOSIDE]	> 200 µM	50 µM	> 100 µM	29 µM	< 6.25 µM	66 µM	59 µM	> 200 µM	Activity (K562 [9]): 30.4%; Activity (K562 [10]): 20.6%; Activity (K562 [11]): 26%; Activity (K562 [12]): 13%
CC(CC[C@H]1/C(=C/c2ccc(F)cc2)CC[C@H]2C(C)(C)CCC[C@]12C)CC(=O)O (some centres not stated)	> 200 µM	–	–	> 200 µM	> 200 µM	> 200 µM	> 200 µM	> 200 µM	–
CC(CC[C@H]1/C(=C/c2ccc([N+](=O)[O-])cc2)CC[C@H]2C(C)(C)CCC[C@]12C)CC(=O)O (some centres not stated)	> 200 µM	124 µM	> 200 µM	194 µM	68 µM	169 µM	180 µM	> 200 µM	–
C=C1CC[C@H]2C(C)(C)CCC[C@]2(C)[C@H]1CCC(C)CC(=O)O (some centres not stated)	> 200 µM	> 200 µM	> 200 µM	168 µM	132 µM	> 200 µM	> 200 µM	> 200 µM	–
CC(CC[C@H]1/C(=C/c2ccc(I)cc2)CC[C@H]2C(C)(C)CCC[C@]12C)CC(=O)O (some centres not stated)	194 µM	50 µM	89 µM	100 µM	33 µM	55 µM	68 µM	98 µM	Activity (K562 [9]): 17.1%; Activity (K562 [13]): 23.2%; Activity (K562 [14]): 21.9%; Activity (K562 [10]): 27.5%; Activity (K562 [15]): 2.4%; Activity (K562 [16]): 24.4%; Activity (K562 [17]): 7.3%; Activity (K562 [18]): 1.1%; Activity (K562 [19]): 17.7%; Activity (K562 [20]): 44.5%; Activity (K562 [21]): 24.1%; Activity (K562 [22]): 7.2%; Activity (K562 [23]): 0.4%; Activity (K562 [11]): 18.2%; Activity (K562 [24]): 8.5%; Activity (K562 [25]): 25.2%; Activity (K562 [12]): 35.8%; Activity (K562 [26]): 14.6%; Activity (K562 [27]): 43.3%
COc1ccc(/C=C2\CC[C@H]3C(C)(C)CCC[C@]3(C)[C@H]2CCC(C)CC(=O)O)cc1OC (some centres not stated)	> 200 µM	> 200 µM	> 200 µM	> 200 µM	106 µM	> 200 µM	178 µM	> 200 µM	–
COc1ccc(/C=C2\CC[C@H]3C(C)(C)CCC[C@]3(C)[C@H]2CCC(C)CC(=O)O)cc1 (some centres not stated)	> 200 µM	–	–	> 200 µM	> 200 µM	> 200 µM	> 200 µM	> 200 µM	–
Cc1ccc(/C=C2\CC[C@H]3C(C)(C)CCC[C@]3(C)[C@H]2CCC(C)CC(=O)O)cc1 (some centres not stated)	> 200 µM	> 200 µM	> 200 µM	> 200 µM	91 µM	> 200 µM	> 200 µM	> 200 µM	–
C=C1CC[C@H]2C(C)(C)CCC[C@]2(C)[C@H]1CCC(C)CC(=O)OC (some centres not stated)	> 200 µM	> 200 µM	> 200 µM	> 200 µM	> 200 µM	> 200 µM	> 200 µM	> 200 µM	–
